{"source": "patent US20230158005A1", "about": "(priority 2020, published 2023)", "key": {"[1]": {"test_system": "A549 human lung carcinoma cells"}, "[2]": {"test_system": "A/New Jersey/8/1976 (H1N1)", "type": "cell-based, influenza A virus"}, "[3]": {"test_system": "A/Solomon Islands/03/2006 (H1N1)", "type": "cell-based, influenza A virus"}, "[4]": {"test_system": "A/USSR/90/1977 (H1N1)", "type": "cell-based, influenza A virus"}, "[5]": {"test_system": "A/Fujian/413/2002 (H3N2)", "type": "cell-based, influenza A virus"}, "[6]": {"test_system": "A/California/02/2014 (H3N2)", "type": "cell-based, influenza A virus"}, "[7]": {"test_system": "A/Perth/16/2009 (H3N2)", "type": "cell-based, influenza A virus"}, "[8]": {"test_system": "A/Texas/71/2007 (H3N2)", "type": "cell-based, influenza A virus"}, "[9]": {"test_system": "A/Indonesia/05/2005 (H5N1)", "type": "cell-based, influenza A virus"}, "[10]": {"test_system": "A/Egypt/N6658/2011 (H5N1)", "type": "cell-based, influenza A virus"}, "[11]": {"test_system": "A/New Caledonia/20/1999 (H1N1)", "type": "cell-based, influenza A virus"}, "[12]": {"test_system": "A/Puerto Rico/8/1934 (H1N1)", "type": "cell-based, influenza A virus"}, "[13]": {"test_system": "A/Hawaii/15/2001 (H1N1)", "type": "cell-based, influenza A virus"}, "[14]": {"test_system": "A/Vietnam/1203/2004 (H5N1)", "type": "cell-based, influenza A virus"}, "[15]": {"test_system": "A/Anhui/1/2013 (H7N9)", "type": "cell-based, influenza A virus"}, "[16]": {"test_system": "A/Hong Kong/156/1997 (H5N1)", "type": "cell-based, influenza A virus"}, "[17]": {"test_system": "A/California/07/2009 (H1N1)", "type": "cell-based, influenza A virus"}, "[18]": {"test_system": "A/Minnesota/19/2011 (H1N1)", "type": "cell-based, influenza A virus"}, "[19]": {"test_system": "A/Alaska/140/2015 (H3N2)", "type": "cell-based, influenza A virus"}, "[20]": {"test_system": "A/Indiana/08/2011 (H3N2)", "type": "cell-based, influenza A virus"}}, "note": "Values joined by “and” are separate entries in the source; they are usually repeats but may differ in a detail not shown here. Equal values may be shown once."}
{"smiles": "CCOC(=O)C1=C[C@@H](OC(CC)CC)[C@H](NC(C)=O)[C@@H](N)C1", "note": "[Oseltamivir, oseltamivir, reference compound]", "values": [{"measurement": "% Dif (absorbance as percent relative to the vehicle control, relative viability)", "setting": "[1]", "result": 83.88, "unit": "%"}, {"measurement": "DIF (Difference from Control)", "setting": "[2]", "result": -3.58, "unit": "log10TCID50/mL"}, {"measurement": "Virus titer AVG", "setting": "[2]", "result": 1.50, "unit": "log10TCID50/mL"}, {"measurement": "Virus titer, replicates 1-3", "setting": "[2]", "result": 1.50, "unit": "log10TCID50/mL"}, {"measurement": "DIF (Difference from Control)", "setting": "[3]", "result": -4.25, "unit": "log10TCID50/mL"}, {"measurement": "Virus titer AVG", "setting": "[3]", "result": 3.25, "unit": "log10TCID50/mL"}, {"measurement": "Virus titer, replicates 1-3", "setting": "[3]", "result": "3.75 log10TCID50/mL and 3.25 log10TCID50/mL and 2.75 log10TCID50/mL"}, {"measurement": "DIF (Difference from Control)", "setting": "[4]", "result": -4.33, "unit": "log10TCID50/mL"}, {"measurement": "Virus titer AVG", "setting": "[4]", "result": 2.42, "unit": "log10TCID50/mL"}, {"measurement": "Virus titer, replicates 1-3", "setting": "[4]", "result": "2.50 log10TCID50/mL (2×) and 2.25 log10TCID50/mL"}, {"measurement": "DIF (Difference from Control)", "setting": "[5]", "result": -0.58, "unit": "log10TCID50/mL"}, {"measurement": "Virus titer AVG", "setting": "[5]", "result": 2.75, "unit": "log10TCID50/mL"}, {"measurement": "Virus titer, replicates 1-3", "setting": "[5]", "result": "3.25 log10TCID50/mL and 2.50 log10TCID50/mL (2×)"}, {"measurement": "DIF (Difference from Control)", "setting": "[6]", "result": -1.58, "unit": "log10TCID50/mL"}, {"measurement": "Virus titer AVG", "setting": "[6]", "result": 4.92, "unit": "log10TCID50/mL"}, {"measurement": "Virus titer, replicates 1-3", "setting": "[6]", "result": "5.25 log10TCID50/mL and 4.75 log10TCID50/mL (2×)"}, {"measurement": "DIF (Difference from Control)", "setting": "[7]", "result": 0.00, "unit": "log10TCID50/mL"}, {"measurement": "Virus titer AVG", "setting": "[7]", "result": 4.25, "unit": "log10TCID50/mL"}, {"measurement": "Virus titer, replicates 1-3", "setting": "[7]", "result": 4.25, "unit": "log10TCID50/mL"}, {"measurement": "DIF (Difference from Control)", "setting": "[8]", "result": -0.83, "unit": "log10TCID50/mL"}, {"measurement": "Virus titer AVG", "setting": "[8]", "result": 4.00, "unit": "log10TCID50/mL"}, {"measurement": "Virus titer, replicates 1-3", "setting": "[8]", "result": "3.50 log10TCID50/mL and 4.75 log10TCID50/mL and 3.75 log10TCID50/mL"}, {"measurement": "DIF (Difference from Control)", "setting": "[9]", "result": -3.50, "unit": "log10TCID50/mL"}, {"measurement": "Virus titer AVG", "setting": "[9]", "result": 4.58, "unit": "log10TCID50/mL"}, {"measurement": "Virus titer, replicates 1-3", "setting": "[9]", "result": "4.75 log10TCID50/mL and 4.50 log10TCID50/mL (2×)"}, {"measurement": "DIF (Difference from Control)", "setting": "[10]", "result": -3.25, "unit": "log10TCID50/mL"}, {"measurement": "Virus titer AVG", "setting": "[10]", "result": 2.08, "unit": "log10TCID50/mL"}, {"measurement": "Virus titer, replicates 1-3", "setting": "[10]", "result": "2.25 log10TCID50/mL and 1.50 log10TCID50/mL and 2.50 log10TCID50/mL"}, {"measurement": "DIF (Difference from Control)", "setting": "[11]", "result": -5.67, "unit": "log10TCID50/mL"}, {"measurement": "Virus titer AVG", "setting": "[11]", "result": 1.50, "unit": "log10TCID50/mL"}, {"measurement": "Virus titer, replicates 1-3", "setting": "[11]", "result": 1.50, "unit": "log10TCID50/mL"}, {"measurement": "DIF (Difference from Control)", "setting": "[12]", "result": -2.25, "unit": "log10TCID50/mL"}, {"measurement": "Virus titer AVG", "setting": "[12]", "result": 3.25, "unit": "log10TCID50/mL"}, {"measurement": "Virus titer, replicates 1-3", "setting": "[12]", "result": "3.75 log10TCID50/mL and 3.25 log10TCID50/mL and 2.75 log10TCID50/mL"}, {"measurement": "DIF (Difference from Control)", "setting": "[13]", "result": -1.92, "unit": "log10TCID50/mL"}, {"measurement": "Virus titer AVG", "setting": "[13]", "result": 2.67, "unit": "log10TCID50/mL"}, {"measurement": "Virus titer, replicates 1-3", "setting": "[13]", "result": "2.75 log10TCID50/mL (2×) and 2.50 log10TCID50/mL"}, {"measurement": "DIF (Difference from Control)", "setting": "[14]", "result": -2.75, "unit": "log10TCID50/mL"}, {"measurement": "Virus titer AVG", "setting": "[14]", "result": 5.17, "unit": "log10TCID50/mL"}, {"measurement": "Virus titer, replicates 1-3", "setting": "[14]", "result": "5.25 log10TCID50/mL and 5.50 log10TCID50/mL and 4.75 log10TCID50/mL"}, {"measurement": "DIF (Difference from Control)", "setting": "[15]", "result": -2.25, "unit": "log10TCID50/mL"}, {"measurement": "Virus titer AVG", "setting": "[15]", "result": 1.50, "unit": "log10TCID50/mL"}, {"measurement": "Virus titer, replicates 1-3", "setting": "[15]", "result": 1.50, "unit": "log10TCID50/mL"}, {"measurement": "DIF (Difference from Control)", "setting": "[16]", "result": -3.08, "unit": "log10TCID50/mL"}, {"measurement": "Virus titer AVG", "setting": "[16]", "result": 1.50, "unit": "log10TCID50/mL"}, {"measurement": "Virus titer, replicates 1-3", "setting": "[16]", "result": 1.50, "unit": "log10TCID50/mL"}, {"measurement": "DIF (Difference from Control)", "setting": "[17]", "result": -3.00, "unit": "log10TCID50/mL"}, {"measurement": "Virus titer AVG", "setting": "[17]", "result": 2.58, "unit": "log10TCID50/mL"}, {"measurement": "Virus titer, replicates 1-3", "setting": "[17]", "result": "2.75 log10TCID50/mL and 2.50 log10TCID50/mL (2×)"}, {"measurement": "DIF (Difference from Control)", "setting": "[18]", "result": -7.33, "unit": "log10TCID50/mL"}, {"measurement": "Virus titer AVG", "setting": "[18]", "result": 1.50, "unit": "log10TCID50/mL"}, {"measurement": "Virus titer, replicates 1-3", "setting": "[18]", "result": 1.50, "unit": "log10TCID50/mL"}, {"measurement": "DIF (Difference from Control)", "setting": "[19]", "result": -3.83, "unit": "log10TCID50/mL"}, {"measurement": "Virus titer AVG", "setting": "[19]", "result": 2.92, "unit": "log10TCID50/mL"}, {"measurement": "Virus titer, replicates 1-3", "setting": "[19]", "result": "2.50 log10TCID50/mL (2×) and 3.75 log10TCID50/mL"}, {"measurement": "DIF (Difference from Control)", "setting": "[20]", "result": -5.08, "unit": "log10TCID50/mL"}, {"measurement": "Virus titer AVG", "setting": "[20]", "result": 3.25, "unit": "log10TCID50/mL"}, {"measurement": "Virus titer, replicates 1-3", "setting": "[20]", "result": "2.75 log10TCID50/mL and 3.75 log10TCID50/mL and 3.25 log10TCID50/mL"}]}
